BindingDB's records for doi:10.1016/j.ejmech.2017.11.032 (International Institute of Molecular and Cell Biology, 2018)

Experiment: Inhibition of bacterial C-terminal His6-tagged ErmC' expressed in Escherichia coli BL21(DE3) assessed as decrease of protein binding to [gamma-33P]ATP-labeled 32-nt oligonucleotide after 30 mins by filter binding assay

| Kd [µM] | Compound |
| --- | --- |
| 1.04 | Cc1cccc(Nc2nc(C(=O)N3CCN(c4ccc(C(F)(F)F)cn4)CC3)cs2)n1 |
| 0.04 | O=C(c1csc(Nc2ncccn2)n1)N1CCN(c2ccc(C(F)(F)F)cn2)CC1 |

Experiment: Non-competitive inhibition of bacterial C-terminal His6-tagged ErmC' (unknown origin) expressed in Escherichia coli BL21(DE3) in presence of [methyl-3H]SAM

| Ki [µM] | Compound |
| --- | --- |
| 148 | O=C(c1c[nH]c(=O)[nH]1)N1CCN(c2ccc(C(F)(F)F)cn2)CC1 |

Experiment: as above
Remark: another data set of the same source

| IC50 [µM] | Compound |
| --- | --- |
| > 500 | O=C(Cc1cn2ccsc2n1)Nc1cccc(N2CCCC2=O)c1 |
| > 500 | COc1ccc(C(=O)CSc2nc(O)cc(=O)[nH]2)cc1 |
| > 500 | O=C(Nc1ccncc1)c1ccn(COc2ccc(F)c(Cl)c2)n1 |
| 500 | O=C(Nc1ccn(CCc2ccncc2)n1)Nc1ccc(F)cc1F |
| 250 | O=C(Nc1cccc(NC(=O)c2cccc(F)c2)c1)c1ccncc1 |
| 250 | Cc1occc1C(=O)Nc1nc(CC(=O)Nc2ccccc2)cs1 |
| > 500 | CN(C)c1ccc(CNC(=O)c2ccc(-n3cncn3)cc2)cc1 |
| 500 | O=C(c1cn(-c2ccccc2)nn1)N1CCN(c2ccc(C(F)(F)F)cn2)CC1 |
| 500 | O=C(Cc1cccc(F)c1)Nc1cccc(-c2ccn[nH]2)c1 |
| 500 | Nn1c(SCc2nc3ccccc3[nH]2)nnc1-c1ccncc1 |
| > 500 | O=C(Nc1cccc(NCc2ccncc2)c1)c1ccccc1Cl |
| > 500 | O=C(c1n[nH]c(=O)[nH]1)N1CCN(c2ccc(C(F)(F)F)cn2)CC1 |
| > 250 | O=C(CSc1nnc2c(n1)[nH]c1ccccc12)Nc1ccccn1 |
| > 500 | CC(=O)c1c[nH]c(C(=O)N2CCN(c3ccc(C(F)(F)F)cn3)CC2)c1 |
| > 500 | O=C(c1cnn[nH]1)N1CCN(c2ccc(C(F)(F)F)cn2)CC1 |
| > 500 | O=C(c1cc(C2CC2)n[nH]1)N1CCN(c2ccc(C(F)(F)F)cn2)CC1 |

Experiment: Inhibition of bacterial C-terminal His6-tagged ErmC' (unknown origin) expressed in Escherichia coli BL21(DE3) assessed as decrease in rRNA methylation using [methyl-3H]AdoMet measured after 1 hr

| IC50 [µM] | Compound |
| --- | --- |
| 250 | O=C(NCCSc1ccccc1)c1ccc(-n2cncn2)cc1 |
| > 500 | FC(F)(F)c1ccc(N2CCN(Cc3cn4ccccc4n3)CC2)nc1 |
| > 500 | Nc1nc(N)nc(CSc2nnc(NCc3ccccc3)s2)n1 |
| > 250 | O=C(Nc1nccs1)c1cc(-c2ccccn2)nc2ccccc12 |
| 100 | O=C(c1c[nH]c(=O)[nH]1)N1CCN(c2ccc(C(F)(F)F)cn2)CC1 |
| 116 | Cc1cccc(Nc2nc(C(=O)N3CCN(c4ccc(C(F)(F)F)cn4)CC3)cs2)n1 |
| 500 | Cn1cnnc1-c1cccc(NC(=O)Cc2cccc(F)c2)c1 |
| 299 | CC(=O)Nc1nc(C)c(-c2csc(Nc3cccc(O)c3)n2)s1 |
| > 500 | FC(F)(F)c1ccc(N2CCN(Cc3c[nH]c(-c4ccccc4)n3)CC2)nc1 |
| 500 | O=C(NCc1cccc(Cn2ccnc2)c1)c1cc2ccccc2o1 |
| 500 | CC(=O)Nc1ccc(S(=O)(=O)NCCc2ccncc2)cc1 |
| 500 | O=C(NCCOc1ccc2c(c1)OCO2)c1ccc2ccccc2n1 |
| 250 | CCCc1cc(C(=O)Nc2cccc(OCc3ccncc3)c2)[nH]n1 |
| > 500 | O=C(NC1CCN(c2nc3ccccc3s2)CC1)c1ccncc1 |
| > 500 | O=C(CSc1nc2cccnc2[nH]1)Nc1nccs1 |
| > 500 | O=C(c1cc(Cl)c[nH]1)N1CCN(c2ncc(C(F)(F)F)cc2Cl)CC1 |
| 110 | O=C(c1csc(Nc2ncccn2)n1)N1CCN(c2ccc(C(F)(F)F)cn2)CC1 |

Experiment: Inhibition of bacterial C-terminal His6-tagged ErmC' expressed in Escherichia coli ER2566 assessed as decrease in rRNA methylation using [methyl-3H]AdoMet measured after 1 hr

| IC50 [µM] | Compound |
| --- | --- |
| 250 | COC(=O)c1sc2ccccc2c1OS(=O)(=O)c1ccc(Cl)cc1 |
| 300 | O=C1c2ccccc2C(=O)N1CN(CCCn1ccnc1)CN1C(=O)c2ccccc2C1=O |
| 180 | Cc1ccc(Sc2cc(C)c(C#N)c(Sc3ccc(C)cc3)n2)cc1 |
| 250 | Clc1ccccc1Cn1nnc2c(N/N=C/c3cccnc3)ncnc21 |

Experiment: Inhibition of bacterial ErmC' assessed as decrease in rRNA methylation preincubated for 15 mins followed by S-adenosyl-L-[methyl3H]methionine addition measured after 2 hrs by scintillation counting method

| IC50 [µM] | Compound |
| --- | --- |
| 18 | Cc1nccc(C(=O)Nc2cc(NC(=O)c3ccccc3)ccc2C)n1 |

Experiment: Competitive inhibition of bacterial C-terminal His6-tagged ErmC' expressed in Escherichia coli BL21(DE3) in presence of [methyl-3H]SAM

| Ki [µM] | Compound |
| --- | --- |
| 354 | CC(=O)Nc1nc(C)c(-c2csc(Nc3cccc(O)c3)n2)s1 |
| 111 | O=C(c1csc(Nc2ncccn2)n1)N1CCN(c2ccc(C(F)(F)F)cn2)CC1 |
